Drawing on US7217730B2, “Method for the use of pyranoindole derivatives to treat infection with Hepatitis C virus” (Wyeth, priority 2002, dated 2007), this text covers inhibition and IC50 for 22 molecules.

Like-named read-outs stand apart in the source and are kept apart here. Where only a bound is given, the exact number is not on record here.

The experiment addresses T1, NS5B from the BK strain (genotype 1b) (Hepatitis C virus genotype 1b, UniProt P26663).
T1 construct: NS5B from the BK strain (genotype 1b) is expressed in E. coli as a protein in which the 21 C-terminal amino acids are replaced; made in house; host or cells: E. coli
The experiment can be described thus: Hepatitis C polymerase inhibition, NS5B BK strain, 33P-GTP filter assay. Type of experiment: biochemical. Conditions: for inhibition at 20 µM: read-out: HCV pol % inh at 20 μM; for IC50: NS5B BK strain, read-out: HCV pol BK IC50. The source says: The ability of the compounds of the present invention to inhibit Hepatitis C Polymerase was established by the following experimental procedure: • NS5B from the BK strain (genotype 1b) is expressed in E. coli as a protein in which the 21 C-terminal amino acids are replaced with a short linker and a hexahistidine tag ([…]). The purified protein is mixed with radioactive nucleotides and allowed to replicate a heteropolymeric RNA substrate, primed by an endogenous short hairpin, resulting in an approximately 760 nt product. The radioactive product is captured on a filter and quantitated after removal of the unincorporated nucleotides.
Reagents: • 10 mM uridine 5′-triphosphate (UTP) (Promega # p116B) • 10 mM adenine 5′-triphosphate (ATP) (Promega # p113B) • 10 mM cytidine 5′-triphosphate (CTP) (Promega # p114B) • 10 mM guanine 5′-triphosphate (GTP) (Promega # p115B) • Bovine Serum Albumin (BSA) 10 mg/ml NEB (100× at 10 mg/ml) #007-BSA • RNasein (Promega #N251X) 40 U/μl • A-[33P]-GTP (NEN-easytides NEG/606H 3000 Ci/mmol, 370 MBq/ml, 10 mCi/ml) • Falcon polypropylene 96 well plates (Becton Dickinson # 351190) • Millipore Multiscreen assasy system-96 well-filtration plate #MADE NOB 50 • Optiphase Supermix (Wallac) formulated by Fisher • Millipore Multiscreen liner for use in microbeta 1450-106 casette [(Wallac) Perkin Elmer #1450-433] • 1 M(N-[2-hydroxyethyl]piperazine-N′-[2-ethanesulfonic acid]) (HEPES), pH 7.3 • Amersham Pharmacia Biotec (US16924-500 ml) • 1 M MgCl2 (SIGMA #M1028) • Dithiothreitol (DTT) (solid) (SIGMA #D9779) • RNase free water (GIBCO-BRL #10977-023) • Dimethyl sulfoxide (Aldrich #27685-5) • Basilen Blue (Sigma, B5520) • 0.5M ethylenediaminetetraacetic acid (EDTA), pH 8 (GIBCO-BRL #15575-020) • Dibasic sodium phosphate (7-hydrate) (Na2HPO4.7H2O; Baker#3824-07) • Phosphoric acid (Baker, #0262.02)
Further reagent preparation: • 0.5 M Na Phosphate buffer. Per liter, weigh 134 gr Na2HPO4.7H2O, add water to 900 ml. Adjust pH to 7.0 with phosphoric acid. Top off with water to 1 L. • Dilute nucleotides 1:1000 to 10 μM (GTP and CTP) or 1:100 to 100 μM (ATP and UTP) into RNase free water.
Procedure: • (1) Compounds 10 μl at 10 μg/ml in 15% dimethylsulfoxide (DMSO)
When starting from 100 μg/ml compound stock in […]: • Dispense 5 μl 30% DMSO per well • Dispense 5 μl compound (100 μg/ml) per well.
When starting from 50 μg/ml compound stock in 15% DMSO: • Add 10 μl compound per well. • (2) Enzyme Mix:
Add 20 μl enzyme mix into each well of the assay plate. Incubate compound and enzyme at room temperature for 15 minutes • (3) Template mix—prepare ahead
Spin down a tube of RNA (5 μg/tube stored in 75% ethanol and 0.3 M sodium acetate) in a microcentrifuge for 20 minutes at 4° C. One tube is enough for 1–1.5 plates. Remove as much ethanol from the tube as possible by inverting the tube. Be gentle, pellet RNA may not adhere to the tube. Vacuum dry the RNA. Resuspend the RNA by adding 1 ml of DEPC water, close the cap of the tube tightly. To dissolve RNA, incubate RNA solution on ice for ˜60 minutes and gently vortex. Spin briefly to ensure all RNA solution is down to the bottom of the tube before opening cap. Gently transfer RNA solution into a 5 ml or larger tube. Add another 3 ml of DEPC water (total 4 ml of volume).
Add the following volumes of reagents
Add 20 μl template mix per reaction (i.e. 20 ng of pOF per reaction or ˜3 nM) • (4) Incubate reaction at room temperature (22–25° C.) for 2 hours. • (5) Stop reaction by adding 50 μl of 170 mM EDTA. • Final concentration of EDTA is 85 mM. • (6) Prewet filters of Millipore multiscreen assay plate by adding 200 μl of 0.5 M sodium phosphate buffer, pH 7.0 into each well. Let stand at room temperature for 2–3 minutes. • (7) Place the multiscreen filter plate onto a Millipore Manifold and turn on vacuum to allow buffer to flow through. Turn off vacuum. Transfer 80 μl of the reaction product into each well of the filter plate. Let stand for 2–3 minutes. […]

T1 sequence (P26663 2420-2989): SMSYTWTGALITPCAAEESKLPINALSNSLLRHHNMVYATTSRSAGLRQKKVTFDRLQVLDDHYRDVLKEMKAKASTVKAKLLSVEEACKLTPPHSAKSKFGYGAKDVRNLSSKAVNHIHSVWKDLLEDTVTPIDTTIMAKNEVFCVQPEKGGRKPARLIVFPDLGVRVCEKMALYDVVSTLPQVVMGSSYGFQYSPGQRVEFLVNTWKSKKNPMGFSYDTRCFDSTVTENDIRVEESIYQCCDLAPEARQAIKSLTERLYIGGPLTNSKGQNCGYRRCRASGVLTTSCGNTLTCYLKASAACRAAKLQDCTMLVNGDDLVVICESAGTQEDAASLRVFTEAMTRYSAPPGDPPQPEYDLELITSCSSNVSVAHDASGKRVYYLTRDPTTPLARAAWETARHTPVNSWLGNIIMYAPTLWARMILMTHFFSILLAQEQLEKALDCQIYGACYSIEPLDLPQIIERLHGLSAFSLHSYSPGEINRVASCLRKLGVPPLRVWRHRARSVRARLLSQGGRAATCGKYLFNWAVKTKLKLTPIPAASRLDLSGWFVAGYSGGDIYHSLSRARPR

Turning to `O=C(O)CC1(c2ccccc2F)OCCc2c1[nH]c1cccc(Br)c21` (centres unmarked) [Example 30, [5-bromo-1-(2-fluorophenyl)-1,3,4,9-tetrahydropyrano[3,4-b]indol-1-yl]acetic acid], the inhibition at 20 µM (Table 1A, 20 μM compound) is less than 5%. Also, the IC50 (Table 1A) is more than 20 µM.

On to `CCCC1(CC(=O)O)OCCc2c1[nH]c1cccc(-c3ccccc3)c21` (centres unmarked) [Example 31, (5-phenyl-1-propyl-1,3,4,9-tetrahydropyrano[3,4-b]indol-1-yl)acetic acid], for which the inhibition at 20 µM (Table 1A, 20 μM compound) turned out to be 12%. For the setting “Table 1A”, the half-inhibitory concentration (IC50) was more than 20 µM.

As to `CCCC1(CC(=O)O)OCCc2c1[nH]c1cccc(-c3ccc(C)cc3)c21` (centres unmarked) [Example 32, [5-(4-methylphenyl)-1-propyl-1,3,4,9-tetrahydropyrano[3,4-b]indol-1-yl]acetic acid], the inhibition at 20 µM (Table 1A, 20 μM compound) was less than 5%. Also, the half-inhibitory concentration (IC50) (Table 1A) is more than 20 µM.

Consider `CCCC1(CC(=O)O)OCCc2c1[nH]c1cccc(-c3ccc(OC)cc3)c21` (centres unmarked) [Example 33, [5-(4-methoxyphenyl)-1-propyl-1,3,4,9-tetrahydropyrano[3,4-b]indol-1-yl]acetic acid], for which the inhibition at 20 µM (Table 1A, 20 μM compound) was less than 5%. Moreover, the 50% inhibitory concentration (IC50) (Table 1A) is more than 20 µM.

`CCCC1(CC(=O)O)OCCc2c1[nH]c1cccc(-c3ccc(Cl)cc3)c21` (centres unmarked) [Example 34, (5-(4-chlorophenyl)-1-propyl-1,3,4,9-tetrahydropyrano[3,4-b]indol-1-yl]acetic acid]: the inhibition at 20 µM (Table 1A, 20 μM compound) was found to be 5%. Moreover, the IC50 (Table 1A) is more than 20 µM.

On to `CCCC1(CC(=O)O)OCCc2c1[nH]c1cccc(-c3ccc(Cl)cc3Cl)c21` (centres unmarked) [Example 35, [5-(2,4-dichlorophenyl)-1-propyl-1,3,4,9-tetrahydropyrano[3,4-b]indol-1-yl]acetic acid], for which the inhibition at 20 µM (Table 1A, 20 μM compound) turned out to be 35%. Moreover, where the note is “Table 1A”, the IC50 is more than 20 µM.

`CCCC1(CC(=O)O)OCCc2c1[nH]c1cccc(-c3ccc(C(F)(F)F)cc3)c21` (centres unmarked) [Example 36, {1-propyl-5-[4-(trifluoromethyl)phenyl]-1,3,4,9-tetrahydropyrano[3,4-b]indol-1-yl}acetic acid]: under “Table 1A, 20 μM compound”, the inhibition at 20 µM was 4%. Moreover, the IC50 (Table 1A) was more than 20 µM.

In the case of `CCCC1(CC(=O)O)OCCc2c1[nH]c1cccc(-c3cccs3)c21` (centres unmarked) [Example 37, (1-propyl-5-thien-2-yl-1,3,4,9-tetrahydropyrano[3,4-b]indol-1-yl)acetic acid], the inhibition at 20 µM (Table 1A, 20 μM compound) was 28%. Besides, under “Table 1A”, the half-inhibitory concentration (IC50) was more than 20 µM.

As to `CCCC1(CC(=O)O)OCCc2c1[nH]c1cccc(-c3ccc4ccccc4c3)c21` (centres unmarked) [Example 38, [5-(2-naphthyl)-1-propyl-1,3,4,9-tetrahydropyrano[3,4-b]indol-1-yl]acetic acid], the inhibition at 20 µM (Table 1A, 20 μM compound) came to 11%. Also, under “Table 1A”, the IC50 was more than 20 µM.

On to `CCCC1(CC(=O)O)OCCc2c1[nH]c1cccc(-c3ccc(-c4ccccc4)cc3)c21` (centres unmarked) [Example 39, [5-(1,1′-biphenyl-4-yl)-1-propyl-1,3,4,9-tetrahydropyrano[3,4-b]indol-1-yl]acetic acid], for which the inhibition at 20 µM (Table 1A, 20 μM compound) is 7%. Under “Table 1A”, the IC50 is more than 20 µM.

Regarding `CCCC1(CC(=O)O)OCCc2c1[nH]c1cccc(-c3ccco3)c21` (centres unmarked) [Example 40, [5-(2-furyl)-1-propyl-1,3,4,9-tetrahydropyrano[3,4-b]indol-1-yl]acetic acid], the inhibition at 20 µM (Table 1A, 20 μM compound) turned out to be 27%. Under “Table 1A”, the IC50 is more than 20 µM.

With `CCCC1(CC(=O)O)OCCc2c1[nH]c1cccc(-c3ccc(Br)cc3)c21` (centres unmarked) [Example 41, [5-(4-bromophenyl)-1-propyl-1,3,4,9-tetrahydropyrano[3,4-b]indol-1-yl]acetic acid], the inhibition at 20 µM (Table 1A, 20 μM compound) was 13%. The half-maximal inhibitory concentration (IC50) (Table 1A) was more than 20 µM.

In the case of `CCCC1(CC(=O)O)OCCc2c1[nH]c1cccc(-c3ccccc3C)c21` (centres unmarked) [Example 42, [5-(2-methylphenyl)-1-propyl-1,3,4,9-tetrahydropyrano[3,4-b]indol-1-yl]acetic acid], the inhibition at 20 µM (Table 1A, 20 μM compound) came to 31%. Also, under “Table 1A”, the IC50 is more than 20 µM.

Consider `CCCC1(CC(=O)O)OCCc2c1[nH]c1cccc(-c3ccccc3OC)c21` (centres unmarked) [Example 43, [5-(2-methoxyphenyl)-1-propyl-1,3,4,9-tetrahydropyrano[3,4-b]indol-1-yl]acetic acid], for which the inhibition at 20 µM came to 83%. Besides, where the note is “Table 1A”, the IC50 was more than 20 µM.

`CCCC1(CC(=O)O)OCCc2c1[nH]c1cccc(-c3ccccc3Cl)c21` (centres unmarked) [Example 44, [5-(2-chlorophenyl)-1-propyl-1,3,4,9-tetrahydropyrano[3,4-b]indol-1-yl]acetic acid]: the inhibition at 20 µM (Table 1A, 20 μM compound) was 41%. For the setting “Table 1A”, the IC50 is more than 20 µM.

Consider `CCCC1(CC(=O)O)OCCc2c1[nH]c1cccc(-c3ccccc3C(F)(F)F)c21` (centres unmarked) [Example 45, (1-propyl-5-[2-(trifluoromethyl)phenyl]-1,3,4,9-tetrahydropyrano[3,4-b]indol-1-yl)acetic acid], for which, under “Table 1A, 20 μM compound”, the inhibition at 20 µM came to 14%. Moreover, the IC50 (Table 1A) was more than 20 µM.

Turning to `CCCC1(CC(=O)O)OCCc2c1[nH]c1cccc(-c3ccc(SC)cc3)c21` (centres unmarked) [Example 46, (5-[4-(methylthio)phenyl]-1-propyl-1,3,4,9-tetrahydropyrano[3,4-b]indol-1-yl)acetic acid], the inhibition at 20 µM (Table 1A, 20 μM compound) was 15%. Further, the 50% inhibitory concentration (IC50) (Table 1A) is more than 20 µM.

Take `CCCC1(CC(=O)O)OCCc2c1[nH]c1cccc(-c3cccc(OC)c3)c21` (centres unmarked) [Example 47, [5-(3-methoxyphenyl)-1-propyl-1,3,4,9-tetrahydropyrano[3,4-b]indol-1-yl]acetic acid]: the inhibition at 20 µM (Table 1A, 20 μM compound) came to 15%. Also, where the note is “Table 1A”, the IC50 is more than 20 µM.

As to `CCCC1(CC(=O)O)OCCc2c1[nH]c1cccc(-c3ccc(F)cc3)c21` (centres unmarked) [Example 48, [5-(4-fluorophenyl)-1-propyl-1,3,4,9-tetrahydropyrano[3,4-b]indol-1-yl]acetic acid], the inhibition at 20 µM (Table 1A, 20 μM compound) was 18%. Also, the half-inhibitory concentration (IC50) (Table 1A) is more than 20 µM.

On to `CCCC1(CC(=O)O)OCCc2c1[nH]c1cccc(-c3cccc(Cl)c3)c21` (centres unmarked) [Example 49, [5-(3-chlorophenyl)-1-propyl-1,3,4,9-tetrahydropyrano[3,4-b]indol-1-yl]acetic acid], for which the inhibition at 20 µM (Table 1A, 20 μM compound) is less than 5%. Moreover, the IC50 (Table 1A) is more than 20 µM.

Take `C/C=C/CCC1(CC(=O)O)OCCc2c1[nH]c1c(Cl)ccc(Cl)c21` (centres unmarked) [Example 50, (5,8-dichloro-1-[(3E)-pent-3-enyl]-1,3,4,9-tetrahydropyrano[3,4-b]indol-1-yl)acetic acid]: the inhibition at 20 µM (Table 1A, 20 μM compound) came out at 34%. The concentration for half-maximal inhibition (IC50) (Table 1A) is more than 20 µM.

As for `CC(C)C1(CC(=O)O)OCCc2c1[nH]c1c(Cl)ccc(Cl)c21` (centres unmarked) [Example 51, (5,8-dichloro-1-isopropyl-1,3,4,9-tetrahydropyrano[3,4-b]indol-1-yl)acetic acid], the inhibition at 20 µM (Table 1A, 20 μM compound) is 84%. In addition, the half-inhibitory concentration (IC50) (Table 1A) was 7 µM.
